This note sets out measurements from patent publication US10416170B2, “Detection and removal of misfolded proteins/peptides” (OXPROTECT GMBH, priority 2011, dated 2019).

The test relates to misfolded proteins. Nature of the test: Binding of misfolded proteins to biotinylated peptide on streptavidin plate (OD 492 nm) or Biacore sensor chip. The following applies: statement in words; data only in figures. As for the experimental part: Biotinylated PRKLYDY (SEQ ID NO: 5) was coated on a preblocked streptavidin plate for 1 hour at room temperature. After a washing step different concentrations of HOCl-modified albumin, or HOCl-modified fibrinogen, or HOCl-modified antithrombin, or HOCl-modified LDL (including negative control) were added for 1 hour at room temperature. After another washing step mouse anti HSA antibody was added to HOCl-modified albumin, rabbit anti fibrinogen antibody to HOCl-modified fibrinogen, rabbit anti antithrombin antibody to HOCl-modified antithrombin and mouse anti Apo B antibody to HOCl-modified LDL for 1 hour at room temperature. After another washing step the corresponding peroxidase coupled secondary antibody was added for 1 hour at room temperature. After a final washing step it was stained with o-phenylenediamine-substrate and the reaction was stopped after 30 min with 4 N sulphuric acid. The optical density was measured at 492 nm. The result is illustrated in FIG. 1A and FIG. 1B.
Biotinylated HWRRAHLLPRLP (SEQ ID NO: 2) was coated on a preblocked streptavidin plate for 1 hour at room temperature. After a washing step different concentrations of HOCl-modified albumin, or HOCl-modified fibrinogen, or HOCl-modified antithrombin, or HOCl-modified LDL (including negative control) were added for 1 hour at room temperature. […] The optical density was measured at 492 nm (FIG. 8A and FIG. 8B). […]
For orientation: SPR reads the build-up and loss of mass on a sensor chip optically.

In the case of “HWRRAHLLPRLP (ADAM15 peptide aa position 286-297) [His, Trp, Arg, Arg, Ala, His, Leu, Leu, Pro, Arg, Leu, Pro]”, the “affinity for misfolded proteins (general binding partner)” value is on record as “high degree of affinity”.
As for “PRKLYDY (Plasminogen peptide) [Pro, Arg, Lys, Leu, Tyr, Asp, Tyr]”, the “affinity for misfolded proteins (general binding partner)” value is “high affinity”.
